# Data taken from patent US7057052B2, “Heterocyclic quinones as pharmaceutical agents” (Duke University, priority 2002, dated 2006).
# Key:
# Format in all cases: biochemical
# Cdc25B = molecular target: T1, Cdc25B (Homo sapiens, UniProt P30305); experiment: Cdc25B phosphatase inhibition (50 μM screen, 3 pt. and 8 pt. IC-50); details: for IC50: Cdc25B, 3 pt. IC-50 using 1, 7 and 50 μM, read-out: IC50 (3 pt); for inhibition at 50 µM: read-out: Percent Inhibition at 50 uM compound, Cdc25 B
# T1 sequence (P30305 1-580): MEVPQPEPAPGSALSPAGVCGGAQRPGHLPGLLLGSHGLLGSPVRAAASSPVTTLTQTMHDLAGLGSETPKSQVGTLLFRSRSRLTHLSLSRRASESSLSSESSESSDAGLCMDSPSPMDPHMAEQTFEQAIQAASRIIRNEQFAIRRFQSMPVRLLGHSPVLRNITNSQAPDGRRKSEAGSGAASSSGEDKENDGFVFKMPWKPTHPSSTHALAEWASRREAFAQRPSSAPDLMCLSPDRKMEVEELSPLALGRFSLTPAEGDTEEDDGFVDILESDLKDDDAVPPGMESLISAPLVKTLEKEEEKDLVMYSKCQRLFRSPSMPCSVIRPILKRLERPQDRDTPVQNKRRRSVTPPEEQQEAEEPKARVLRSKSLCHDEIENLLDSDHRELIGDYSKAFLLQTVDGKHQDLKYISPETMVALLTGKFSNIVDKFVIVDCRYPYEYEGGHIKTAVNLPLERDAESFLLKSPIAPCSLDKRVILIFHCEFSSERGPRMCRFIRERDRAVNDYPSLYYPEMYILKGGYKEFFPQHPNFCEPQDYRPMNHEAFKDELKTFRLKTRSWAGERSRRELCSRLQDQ
# Description: (§1) Using procedures known to those skilled in the art, the compounds listed in Table 3 were screened against Cdc25A, Cdc25B, and Cdc25C at 50 μM. […] To analyze these effects further, the compounds were then screened against Cdc25B in a 3 pt. IC-50, using 1, 7 and 50 μM. Several of the compounds were also screened with an 8 pt. IC-50 process, using 0.1–10 μM, allowing determination of Hill slopes.
# Cdc25A = molecular target: T2, Cdc25A (Homo sapiens, UniProt P30304); experiment: Cdc25A phosphatase inhibition screen at 50 μM; details: read-out: Percent Inhibition at 50 uM compound, Cdc25 A
# T2 sequence (P30304 1-524): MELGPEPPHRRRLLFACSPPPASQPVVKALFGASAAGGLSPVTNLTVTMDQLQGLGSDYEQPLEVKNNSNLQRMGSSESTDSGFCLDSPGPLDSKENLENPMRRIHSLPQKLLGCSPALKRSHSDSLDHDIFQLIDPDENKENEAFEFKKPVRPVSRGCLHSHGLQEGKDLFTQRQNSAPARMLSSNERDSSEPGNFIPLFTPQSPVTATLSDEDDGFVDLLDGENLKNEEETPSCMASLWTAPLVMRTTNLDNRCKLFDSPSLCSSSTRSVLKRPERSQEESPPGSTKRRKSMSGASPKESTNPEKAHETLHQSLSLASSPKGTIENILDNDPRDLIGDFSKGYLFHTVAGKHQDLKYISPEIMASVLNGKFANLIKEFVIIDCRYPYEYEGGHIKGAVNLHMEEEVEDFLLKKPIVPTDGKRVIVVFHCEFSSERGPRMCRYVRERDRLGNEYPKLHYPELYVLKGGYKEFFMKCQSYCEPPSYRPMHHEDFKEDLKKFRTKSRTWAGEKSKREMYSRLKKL
# Description: as §1
# Cdc25C = molecular target: T3, Cdc25C (Homo sapiens, UniProt P30307); experiment: Cdc25C phosphatase inhibition screen at 50 μM; details: read-out: Percent Inhibition at 50 uM compound, Cdc25 C
# T3 sequence (P30307 1-473): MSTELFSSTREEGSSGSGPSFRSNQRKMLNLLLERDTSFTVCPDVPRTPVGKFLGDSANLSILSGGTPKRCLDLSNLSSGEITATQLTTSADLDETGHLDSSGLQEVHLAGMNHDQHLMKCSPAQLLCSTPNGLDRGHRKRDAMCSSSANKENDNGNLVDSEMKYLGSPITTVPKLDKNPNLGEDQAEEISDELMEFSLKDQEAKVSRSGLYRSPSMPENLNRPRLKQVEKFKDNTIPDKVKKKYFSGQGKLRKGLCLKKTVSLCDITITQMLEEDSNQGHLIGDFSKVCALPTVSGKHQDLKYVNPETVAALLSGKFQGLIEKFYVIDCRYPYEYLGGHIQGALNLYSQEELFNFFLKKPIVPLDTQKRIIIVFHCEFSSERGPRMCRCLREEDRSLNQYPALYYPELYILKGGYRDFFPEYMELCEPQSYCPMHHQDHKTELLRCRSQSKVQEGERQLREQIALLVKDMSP
# Description: as §1
SMILES,IC50 (Cdc25B),inhibition at 50 µM (Cdc25B),inhibition at 50 µM (Cdc25A),inhibition at 50 µM (Cdc25C)
"Cc1[nH]c2c(C)cccc2c1C1=C(O)C(=O)C=C(O)C1=O [7G, 2,5-dihydroxy-3-(2,7-dimethyl-1H-indol-3-yl)-[1,4]-benzoquinone]",38.5 µM,0%,20%,0%
"O=C1C=C(O)C(=O)C(c2c[nH]c3cc4c(cc23)OCO4)=C1O [7H, 2,5-dihydroxy-3-(5,6-methylenedioxy-1H-indol-3-yl)-[1,4]-benzoquinone]",3.7 µM,88%,96%,63%

# The remaining lines, values ahead:
IC50 (Cdc25B),inhibition at 50 µM (Cdc25B),inhibition at 50 µM (Cdc25A),inhibition at 50 µM (Cdc25C),SMILES
117 µM,19%,39%,20%,"COc1cc2[nH]cc(C3=C(O)C(=O)C=C(O)C3=O)c2cc1OC [8A, 2,5-dihydroxy-3-(5,6-dimethoxy-1H-indol-3-yl)-[1,4]-benzoquinone]"
12.8 µM,32%,90%,20%,"Cc1ccc2c(C3=C(O)C(=O)C=C(O)C3=O)c[nH]c2c1C [8B, 2,5-dihydroxy-3-(6,7-dimethyl-1H-indol-3-yl)-[1,4]-benzoquinone]"
2.8 µM,79%,98%,75%,"O=C1C=C(O)C(=O)C(c2c[nH]c3c2ccc2ccccc23)=C1O [8C, 2,5-dihydroxy-3-(1H-benzo[g]indol-3-yl)-[1,4]-benzoquinone]"
